In assay [1] the test system is Sprague-Dawley rats. Put plainly: Rat EEG assay. The assay is classed as in vivo. The conditions noted are these: for number of wake and non-REM sleep bouts / wake bout duration / wake promotion / time spent in REM sleep / time spent in non-REM sleep / time spent in wake: EEG; for normalized power in the 40-60 Hz range (EEG spectral analysis): EEG spectra; for wake promotion: first 6 hours post-dosing; for time spent in REM sleep / time spent in non-REM sleep / time spent in wake: relative to vehicle treated animals. The procedure: The rat EEG assay was designed to measure electrical signals from the brain as a proxy for in vivo biological activity at the H3 receptor.
Specifically, animals were housed in a temperature-controlled recording room under a 12 hour/12 hour light/dark cycle, with food and water available ad libitum. Eight male Sprague-Dawley rats were implanted with chronic recording devices for continuous recordings of electroencephalograph (EEG) via telemetry (Data Sciences Inc). A repeated measures design was employed in which each rat received eight separate dosings of the compound being tested with a minimum of 3 days between doses. […] EEG data were scored visually in 10 second epochs for wake, REM, and non-REM states. Scored data were analyzed and expressed as time spent in each state per hour. Cumulative time spent in wake, non-REM, and REM states were calculated for the 6 hour recording period. To determine whether any of the pharmacological treatments affected the consolidation of behavioral states, the duration and number of bouts for each state were calculated in hourly bins. A “bout” consisted of a minimum of two consecutive 10-second epochs of a given state and ended with any single state change epoch. The EEG spectra during wake and non-REM sleep were analyzed offline with a fast Fourier transform algorithm (NeuroScore software, Data Sciences Inc) on all epochs without a visually detectable artifact. Wake EEG spectra were analyzed in 1 Hz bins. Data were analyzed using two-way repeated-measures ANOVA.
For both compounds, there was an increase in the time spent in wake, a decrease in the time spent in non-REM sleep, and no change in the time spent in REM sleep relative to vehicle treated animals.

Assay [2] addresses T1, H3 receptor (Rattus norvegicus, UniProt Q9QYN8).
T1 construct: membranes to be tested were prepared from brain frontal cortex membranes by homogenization; from tissue; host or cells: frontal cortex of adult male Sprague-Dawley rats
Briefly: Rat H3 ex vivo receptor occupancy assay. The following applies: dose giving 50% H3 receptor occupancy; ex vivo binding of [3H] R-α-methylhistamine in rat frontal cortical membranes. The procedure: This assay was designed to measure occupancy of H3 receptors by compounds provided herein by measuring the competition of binding to the H3 receptor with a radiolabeled ligand known to bind to the H3 receptor. More specifically, receptor occupancy was determined by ex vivo binding studies in rat cortical membranes.
Adult male Sprague-Dawley rats were treated with vehicle or compound at four different dose levels. After an appropriate pre-treatment time (typically 30 min to 1 hr), membranes to be tested were prepared from brain frontal cortex membranes by homogenization in ice-cold assay buffer. Frontal cortical membranes (400 μL containing an equivalent of 5 mg wet weight of tissue/tube) were incubated with 50 µL of [^3H] R-α-methylhistamine (final concentration 2 nM) and either 50 μL of buffer (total binding) or 50 μL of imetit (10 μM; non-specific binding) for 30 min at 25° C. in triplicates. Membrane bound radioactivity was recovered by filtration under vacuum through Skatron 11731 filters, pre-soaked in 0.5% PEI. Filters were rapidly washed with ice-cold 50 mM Tris buffer (wash setting 9,9,0) and radioactivity was determined by liquid scintillation counting (1 mL Packard MV Gold Scintillator). The amount of radioactivity in the membranes at the different doses was used generate a dose response curve and to calculate the ED50 (the dose that results in 50% receptor occupancy).
ED50 is the amount of drug at which 50% of the H3 receptors are occupied by the drug as measured by the amount of radioactivity measured at that dose relative to that measured when no drug (or vehicle) was administered.

The target of assay [3] is human histamine H3 receptor (Homo sapiens, UniProt Q9Y5N1). Put plainly: H3 GTPγS assay (SPA method), histamine H3 in vitro assay. In kind it is biochemical. The following applies: membranes of cells expressing human H3; GTPγ[35S] SPA; antagonist testing with reference agonist at EC80 (30 nM); in one embodiment HCl salts tested; read-out: Potency (functional potency as indicated by IC50).
human histamine H3 receptor, sequence (Q9Y5N1 whole entry): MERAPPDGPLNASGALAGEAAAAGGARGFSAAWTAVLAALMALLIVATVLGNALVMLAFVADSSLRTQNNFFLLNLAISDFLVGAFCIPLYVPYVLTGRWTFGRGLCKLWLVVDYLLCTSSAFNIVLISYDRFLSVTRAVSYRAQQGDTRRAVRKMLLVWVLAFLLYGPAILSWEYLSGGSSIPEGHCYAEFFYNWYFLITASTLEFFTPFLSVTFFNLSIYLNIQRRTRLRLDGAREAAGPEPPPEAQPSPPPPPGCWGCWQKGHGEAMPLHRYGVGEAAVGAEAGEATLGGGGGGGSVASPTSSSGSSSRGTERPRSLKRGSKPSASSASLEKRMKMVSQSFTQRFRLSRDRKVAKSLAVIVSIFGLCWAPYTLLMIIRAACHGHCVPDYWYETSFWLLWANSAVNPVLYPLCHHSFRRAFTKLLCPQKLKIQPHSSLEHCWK

Structures are written as SMILES.

T1 sequence (Q9QYN8 whole entry): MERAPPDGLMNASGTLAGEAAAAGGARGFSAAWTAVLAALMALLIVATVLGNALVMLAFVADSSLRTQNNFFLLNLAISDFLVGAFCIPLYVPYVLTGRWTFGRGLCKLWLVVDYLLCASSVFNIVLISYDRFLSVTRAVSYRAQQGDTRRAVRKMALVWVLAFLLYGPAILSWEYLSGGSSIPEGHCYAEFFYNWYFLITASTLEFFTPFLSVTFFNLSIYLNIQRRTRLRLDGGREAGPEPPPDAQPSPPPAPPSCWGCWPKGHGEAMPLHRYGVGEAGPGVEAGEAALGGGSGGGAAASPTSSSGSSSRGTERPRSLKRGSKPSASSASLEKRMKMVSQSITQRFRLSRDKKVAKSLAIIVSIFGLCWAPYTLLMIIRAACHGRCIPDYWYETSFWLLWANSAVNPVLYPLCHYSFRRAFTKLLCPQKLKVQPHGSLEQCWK

As a reminder, the ED50 is the dose that gives a 50% effect, or the effect in half of the subjects. Higher therefore signals weaker potency. Broadly, the IC50 is the concentration needed to halve the response being measured. With `c1cn2cc(-c3ccc4c(c3)nc3n4CCN4CCCC[C@@H]4C3)ccc2n1` (single isomer, unassigned) [Compound 48], in assay [1], the “number of wake and non-REM sleep bouts” value was “decrease”; the wake bout duration entry is “increase”; the “normalized power in the 40-60 Hz range (EEG spectral analysis)” value is on record as “increase”; the wake promotion entry is “wake promoting”. In assay [1], the “time spent in REM sleep” value was “no change”, the “time spent in non-REM sleep” value is “decrease” and the “time spent in wake” value is reported as “increase”. This molecule also had an ED50 in assay [2] of at most 1 mg/kg. Also, in assay [3], the half-inhibitory concentration (IC50) was under 10 nM.
Turning to `c1cn2cc(-c3ccc4c(c3)nc3n4CCCN(C4CCC4)CC3)ccc2n1` [Compound 59, 3-cyclobutyl-10-(imidazo[1,2-a]pyridin-6-yl)-1,2,3,4,5,6-hexahydrobenzo[4,5]imidazo[1,2-a][1,5]diazocine], in assay [1], the “number of wake and non-REM sleep bouts” value is “decrease”; the wake bout duration result is recorded as “increase”; the “normalized power in the 40-60 Hz range (EEG spectral analysis)” value is “increase”; the wake promotion entry was “wake promoting”. Besides, in assay [1], the “time spent in REM sleep” value is on record as “no change”, the “time spent in non-REM sleep” value is given as “decrease” and the “time spent in wake” value is given as “increase”. Also, the ED50 in assay [2] is at most 1 mg/kg. Also, in assay [3], the IC50 is under 10 nM.
For `c1ccc2c(c1)CCN(Cc1ccc3c(c1)nc1n3CCCN(C3CCC3)CC1)C2` [Compound 85, 3-cyclobutyl-10-((3,4-dihydroisoquinolin-2(1H)-yl)methyl)-1,2,3,4,5,6-hexahydrobenzo[4,5]imidazo[1,2-a][1,5]diazocine], the ED50 in assay [2] is at most 1 mg/kg. For the same molecule, the IC50 in assay [3] was under 10 nM.

For the origin of these results see patent US20110065694A1 (priority 2009, published 2011).
